# Measured values as given in US20110008465A1, “SESQUITERPENE FORMULATIONS, KITS AND METHODS OF USE THEREOF” (priority 2007, published 2011).
# How the values were obtained:
# [1] = test system: Panc 05.04 (pancreas cancer); experiment: Chou and Talalay combination assay with beta-caryophyllene; type: cell-based, Human; settings: in combination with beta-caryophyllene in ethanol (40-150 mM), 48 h
# Description: Agent: […] Each solution was prepared fresh and use within 1 hour after preparation. 5 μL of each test article were added to 1 mL of culture medium for a final concentration of 0.5% of solvent and this concentration have no toxic effect on cells. Cells: The Panc 05.04 cell line was used. Cells were harvested using trypsine-EDTA. […] Cells were plated in 96-well microplates (BD Falcon) at a density of 7.5×10^3 cells per well for Chou and Talalay assay in 100 μL of culture medium and were allowed to adhere for 24 hours before treatment. Proliferation assay: Increasing concentrations of the anticancer agents and/or beta-caryophyllene were added to 96-well plate (100 μL per well). The final concentration of solvent in the culture medium was maintained below 0.5% (volume/volume) to avoid solvent toxicity. […] The cells were incubated for 48 h at 37° C. and 5% CO2. Cytotoxicity was assessed using the resazurin reduction test (8). […] Resazurin was then removed. Data analysis: Results were analyzed using the Chou and Talalay method (9) and may be interpreted as follow: […]
# [2] = test system: tumor cell lines; experiment: Comparative potentiating effect of beta-caryophyllene and Tesmilifene (DPPE) combined with 5 antitumor classes; type: cell-based
# Description: Each solution was prepared fresh and use within 1 hour after preparation.
# Cells were then harvested using trypsine-EDTA. Cells were counted using a hemocytometer and resuspended in DMEM+10% FBS medium.
# Proliferation assay: Increasing concentrations of the anticancer agents and/or beta-caryophyllene were added to 96-well plate (100 μL per well). The final concentration of solvent in the culture medium was maintained below 0.5% (volume/volume) to avoid solvent toxicity.
# The cells were incubated for 48 h at 37° C. and 5% CO2. Cytotoxicity was assessed using the resazurin reduction test (O'Brien et al., 2000). Fluorescence was measured on an automated 96-well Fluoroskan Ascent FI™ plate reader (Labsystems) using excitation and emission wavelengths of 530 nm and 590 nm, respectively. Resazurin was then removed.
# Microplates were frozen at −20° C. overnight. Plates were thawed, a volume of 100 μl of 0.01% SDS in water was added to the wells, the plates were shaken at room temperature for 3 hours and then frozen once more at −20° C. overnight. […] Plates were shaken in the dark (at room temperature) for at least 2 hours, and fluorescence was measured on an automated 96-well Fluoroskan Ascent FI™ plate reader (Labsystems) using excitation and emission wavelengths of 360 nm and 460 nm, respectively.
# Results were analyzed using the Chou and Talalay method (9) and may be interpreted as follow: Cl>1 represents an antagonist effect of beta-caryophyllene with the corresponding anticancer agent; Cl=1 represents an additive effect of beta-caryophyllene with the corresponding anticancer agent; Cl<1 represents a potentiating effect of beta-caryophyllene with the corresponding anticancer agent.
# [3] = test system: MCF-7; experiment: Cytotoxicity of alpha-humulene and isocaryophyllene alone or combined with beta-caryophyllene; type: cell-based, human; settings: beta-caryophyllene 2.5 to 40 μg/ml
# Description: Combinations of beta-caryophyllene and two other antitumor agents, isocaryophyllene and α-humulene, were also tested as described above with some adaptations. 5×10^3 cells per well were allowed to adhere for 16 hours before treatment. The final concentration of solvent in the culture medium was maintained at 0.5% (volume/volume) to avoid toxicity. These combinations were tested on MCF-7.
# [4] = test system: B16-F1 mouse skin melanoma
# Description: Formulations: Two formulations were used for this study. The first one was prepared for groups treated with paclitaxel alone while the other one was prepared for the paclitaxel/caryophyllene combination (Table 5). […] These solutions were further diluted with 19 mL of a solution containing soya lecithin (2.85 mL), glycerol (0.95 mL) and polysorbate 80 (380 μL) in water (14.82 mL). Each solution was prepared fresh and used within 30 minutes after preparation (see Table 5 below for presenting formulations).
# Mice: All the experiments were carried out using B6D2F1 male mice, 6-weeks old (Charles Rivers Inc., St-Constant, QC). They were handled and cared for in accordance with the Guide for the Care and Use of Laboratory Animals.
# Cells (passages #7 to 21) were grown to 90% confluence in complete MEM medium containing Earle's salts and L-glutamine (Mediatech Cellgro, Va.), 10% fetal bovine serum (Hyclone), vitamins (1×), penicillin (100 I.U./mL) and streptomycin (100 μg/mL), essential amino acids (1×) and sodium pyruvate (1×) (Mediatech Cellgro, Va.). Cells were then harvested using 0.5% trypsin-EDTA (Mediatech Cellgro, Va.). Cells were counted using a hemacytometer and resuspended in MEM medium without SVF. 100 μL of a solution containing […] per well were inoculated subcutaneously in each mice.
# Administration: To establish animal tumor models, 2.5×10^6 cells were resuspended in 100 μL of MEM medium without SVF (Mediatech Cellgro, Va.) and injected into the subcutaneous tissue of the right flank of the mice on day zero. […] Treatments by intravenous injections (tail vein) were performed on days 7, 10, 13.
# Data analysis: Antitumor activity was evaluated according to two parameters as follows:
# CTW values were averaged within each group during and after drug treatment over a period of 17 days post-tumor implant. […] Values of p<0.05 were considered statistically significant.
# [5] = paclitaxel 2 mg/kg, beta-caryophyllene 1%, i.v. days 7, 10, 13
smiles,measurement,setting,value
"CC[C@@]1(O)C(=O)OCc2c1cc1n(c2=O)Cc2cc3ccccc3nc2-1 [Camptothecin, camptothecin]",Potentiating activity Panc 05.04,[1],Potentiating > IC60
CCc1c2c(nc3ccc(OC(=O)N4CCC(N5CCCCC5)CC4)cc13)-c1cc3c(c(=O)n1C2)COC(=O)[C@]3(O)CC [Irinotecan],Potentiating activity Panc 05.04,[1],Potentiating > IC50
"C=C1CC/C=C(\C)CC[C@@H]2[C@@H]1CC2(C)C [beta-caryophyllene, (1R,4E,9S)-4-11,11-trimethyl-8-methylenebicyclo[7.2.0]undec-4-ene]",Alkylating agents %,[2]; class (1) Very High,50%
same,Alkylating agents Total (60),[2]; class (1) Very High,30
same,Antimitotic agents %,[2]; class (1) Very High,60%
same,Antimitotic agents Total (40),[2]; class (1) Very High,24
same,RNA/DNA antimetabolites %,[2]; class (1) Very High,30%
same,RNA/DNA antimetabolites Total (20),[2]; class (1) Very High,6
same,Topoisomerase II inhibitors %,[2]; class (1) Very High,33%
same,Topoisomerase II inhibitors Total (40),[2]; class (1) Very High,13
same,kinase inhibitors %,[2]; class (1) Very High,35%
same,kinase inhibitors Total (20),[2]; class (1) Very High,7
same,Alkylating agents %,[2]; class (2) High,15%
same,Alkylating agents Total (60),[2]; class (2) High,9
same,Antimitotic agents %,[2]; class (2) High,15%
same,Antimitotic agents Total (40),[2]; class (2) High,6
same,RNA/DNA antimetabolites %,[2]; class (2) High,20%
same,RNA/DNA antimetabolites Total (20),[2]; class (2) High,4
same,Topoisomerase II inhibitors %,[2]; class (2) High,18%
same,Topoisomerase II inhibitors Total (40),[2]; class (2) High,7
same,kinase inhibitors %,[2]; class (2) High,30%
same,kinase inhibitors Total (20),[2]; class (2) High,6
same,Alkylating agents %,[2]; class (3) Moderate,23%
same,Alkylating agents Total (60),[2]; class (3) Moderate,14
same,Antimitotic agents %,[2]; class (3) Moderate,23%
same,Antimitotic agents Total (40),[2]; class (3) Moderate,9
same,RNA/DNA antimetabolites %,[2]; class (3) Moderate,15%
same,RNA/DNA antimetabolites Total (20),[2]; class (3) Moderate,3
same,Topoisomerase II inhibitors %,[2]; class (3) Moderate,28%
same,Topoisomerase II inhibitors Total (40),[2]; class (3) Moderate,11
same,kinase inhibitors %,[2]; class (3) Moderate,20%
same,kinase inhibitors Total (20),[2]; class (3) Moderate,4
same,Alkylating agents %,[2]; class (4) Weak,4%
same,Alkylating agents Total (60),[2]; class (4) Weak,2
same,Antimitotic agents %,[2]; class (4) Weak,3%
same,Antimitotic agents Total (40),[2]; class (4) Weak,1
same,RNA/DNA antimetabolites %,[2]; class (4) Weak,10%
same,RNA/DNA antimetabolites Total (20),[2]; class (4) Weak,2
same,Topoisomerase II inhibitors %,[2]; class (4) Weak,10%
same,Topoisomerase II inhibitors Total (40),[2]; class (4) Weak,4
same,kinase inhibitors %,[2]; class (4) Weak,5%
same,kinase inhibitors Total (20),[2]; class (4) Weak,1
same,Alkylating agents %,[2]; class (5) Additive effect,0%
same,Alkylating agents Total (60),[2]; class (5) Additive effect,0
same,Antimitotic agents %,[2]; class (5) Additive effect,0%
same,Antimitotic agents Total (40),[2]; class (5) Additive effect,0
same,RNA/DNA antimetabolites %,[2]; class (5) Additive effect,0%
same,RNA/DNA antimetabolites Total (20),[2]; class (5) Additive effect,0
same,Topoisomerase II inhibitors %,[2]; class (5) Additive effect,8%
same,Topoisomerase II inhibitors Total (40),[2]; class (5) Additive effect,3
same,kinase inhibitors %,[2]; class (5) Additive effect,5%
same,kinase inhibitors Total (20),[2]; class (5) Additive effect,1
same,Alkylating agents %,[2]; class (6) Antagonist effect,7%
same,Alkylating agents Total (60),[2]; class (6) Antagonist effect,4
same,Antimitotic agents %,[2]; class (6) Antagonist effect,0%
same,Antimitotic agents Total (40),[2]; class (6) Antagonist effect,0
same,RNA/DNA antimetabolites %,[2]; class (6) Antagonist effect,25%
same,RNA/DNA antimetabolites Total (20),[2]; class (6) Antagonist effect,5
same,Topoisomerase II inhibitors %,[2]; class (6) Antagonist effect,5%
same,Topoisomerase II inhibitors Total (40),[2]; class (6) Antagonist effect,2
same,kinase inhibitors %,[2]; class (6) Antagonist effect,5%
same,kinase inhibitors Total (20),[2]; class (6) Antagonist effect,1
same,drugs exhibiting a potentiating effect when combined,[2]; drugs tested at their IC50 values,91%
same,effect on anticancer activity of alpha-humulene and isocaryophyllene,[3],increases significantly anticancer activity
same,effect on tumor growth (in words),"[4]; B16 melanoma-bearing mice, i.v. days 7, 10, 13",do not significantly inhibit tumor growth
same,Observations: animals surviving on day 17,"[4]; male, B6D2F1, mouse, in vivo, 17 day",08/08 animals
same,Treated/Control (%) on day 13,[4]; [5],95%
same,Treated/Control (%) on day 14,[4]; [5],100%
same,Treated/Control (%) on day 15,[4]; [5],89%
same,Treated/Control (%) on day 16,[4]; [5],91%
same,Treated/Control (%) on day 17,[4]; [5],111%
